Here are results for four compounds from ChEMBL document CHEMBL1132619 (J Med Chem, 1999).

The target of experiment [1] is Histamine H1 receptor (Cavia porcellus) (UniProt P31389). The settings on record: Jejunum.
The target of experiment [2] is Histamine H3 receptor (Rattus norvegicus) (UniProt Q9QYN8). The note with it: Cerebral cortex.
Experiment [3] deals with Histamine H3 receptor (Cavia porcellus) (UniProt Q9JI35). The settings on record: Jejunum.
Experiment [4] has as its target Histamine H2 receptor (Cavia porcellus) (UniProt P47747). The settings on record: Cardiac atrium.
Another experiment addresses Histamine H3 receptor (Rattus norvegicus, UniProt Q9QYN8). As to the kind of experiment: In vitro binding affinity was measured against Histamine H3 receptor on rat cerebral cortex. The format is tissue-based.

One may read the Ki as the equilibrium dissociation constant of an inhibitor or competing ligand from its target. A higher Ki goes with lower affinity.

Structures are written as SMILES.

Chain of Histamine H2 receptor (Cavia porcellus) (P47747 whole entry): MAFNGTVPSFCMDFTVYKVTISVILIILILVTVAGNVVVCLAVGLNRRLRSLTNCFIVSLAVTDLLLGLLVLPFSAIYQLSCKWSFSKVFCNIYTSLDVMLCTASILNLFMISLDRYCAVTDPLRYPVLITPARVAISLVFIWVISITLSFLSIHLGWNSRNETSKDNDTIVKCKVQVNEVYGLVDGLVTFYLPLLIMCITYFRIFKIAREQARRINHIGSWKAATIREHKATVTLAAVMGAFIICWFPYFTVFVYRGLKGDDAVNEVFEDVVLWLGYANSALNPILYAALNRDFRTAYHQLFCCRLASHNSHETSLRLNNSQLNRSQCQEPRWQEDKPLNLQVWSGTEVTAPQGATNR
Chain of Histamine H3 receptor (Cavia porcellus) (Q9JI35 whole entry): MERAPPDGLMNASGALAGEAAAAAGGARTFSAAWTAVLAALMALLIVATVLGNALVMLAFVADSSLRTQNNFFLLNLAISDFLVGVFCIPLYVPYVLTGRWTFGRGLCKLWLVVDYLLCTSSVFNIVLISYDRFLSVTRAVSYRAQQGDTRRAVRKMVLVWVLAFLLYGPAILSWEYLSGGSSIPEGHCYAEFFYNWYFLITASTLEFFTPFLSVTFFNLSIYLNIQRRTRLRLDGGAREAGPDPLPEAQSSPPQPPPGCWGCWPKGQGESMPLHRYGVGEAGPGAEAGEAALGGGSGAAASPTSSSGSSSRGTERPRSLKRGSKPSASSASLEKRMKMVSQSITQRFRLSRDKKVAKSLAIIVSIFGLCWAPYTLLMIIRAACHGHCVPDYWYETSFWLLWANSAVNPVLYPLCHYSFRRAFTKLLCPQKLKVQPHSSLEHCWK
Chain of Histamine H1 receptor (Cavia porcellus) (P31389 whole entry): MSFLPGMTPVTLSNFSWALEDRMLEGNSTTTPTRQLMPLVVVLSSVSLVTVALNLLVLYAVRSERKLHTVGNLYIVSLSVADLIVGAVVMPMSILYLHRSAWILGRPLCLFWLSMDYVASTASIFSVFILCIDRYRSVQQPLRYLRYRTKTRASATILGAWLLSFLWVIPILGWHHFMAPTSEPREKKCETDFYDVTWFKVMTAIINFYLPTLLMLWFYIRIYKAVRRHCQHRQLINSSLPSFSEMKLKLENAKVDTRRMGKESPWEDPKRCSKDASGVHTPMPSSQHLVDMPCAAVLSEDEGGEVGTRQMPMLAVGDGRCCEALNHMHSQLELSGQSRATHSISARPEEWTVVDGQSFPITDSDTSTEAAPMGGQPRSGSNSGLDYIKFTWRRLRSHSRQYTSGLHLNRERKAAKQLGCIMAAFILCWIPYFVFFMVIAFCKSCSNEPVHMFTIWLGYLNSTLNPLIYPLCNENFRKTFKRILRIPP
Chain of Histamine H3 receptor (Rattus norvegicus) (Q9QYN8 whole entry): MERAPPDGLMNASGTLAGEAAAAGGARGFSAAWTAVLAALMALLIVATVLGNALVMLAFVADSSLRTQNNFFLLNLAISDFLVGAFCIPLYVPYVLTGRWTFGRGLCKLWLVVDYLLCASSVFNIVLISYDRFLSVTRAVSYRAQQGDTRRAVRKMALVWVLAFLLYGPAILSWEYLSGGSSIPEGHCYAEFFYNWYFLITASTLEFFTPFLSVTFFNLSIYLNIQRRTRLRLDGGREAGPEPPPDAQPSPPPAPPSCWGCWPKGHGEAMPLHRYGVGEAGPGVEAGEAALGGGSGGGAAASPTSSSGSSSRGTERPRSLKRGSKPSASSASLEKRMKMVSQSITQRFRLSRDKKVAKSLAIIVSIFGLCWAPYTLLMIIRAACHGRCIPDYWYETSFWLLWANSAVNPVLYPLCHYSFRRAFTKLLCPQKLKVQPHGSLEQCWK
Chain of Histamine H3 receptor (Q9QYN8 whole entry): as above

With `NCCc1c[nH]cn1`, the pD2 came to 6.6 in experiment [1], 7.4 in experiment [2], 7.4 in experiment [3] and 6.1 in experiment [4].

Regarding `N[C@@H]1C[C@H]1c1c[nH]cn1`, the pD2 in experiment [1] is 4.5; in experiment [2] it was 5.75; in experiment [3] it was 6.15; in experiment [4], 4.9.

For `N[C@H]1C[C@@H]1c1c[nH]cn1` [VUF-5297], at Histamine H3 receptor, the affinity corresponds to a Ki of 1.74 nM. Besides, the pD2 in experiment [1] came out at 5; in experiment [2], 7.08; in experiment [3] it was 6.64; in experiment [4], 4.8.

The compound `N[C@@H]1C[C@H]1c1cnc[nH]1` [VUF-5296] gave a Ki on Histamine H3 receptor of 25.1 nM.
